From patent US20030181436A1, “Treatment for AIDS, HIV, and other related diseases and compounds for use therewith” (priority 2001, published 2003)

Columns and labels:
[1] = test system: U1 cells; test: U1 assay, compound toxicity by MTS dye reduction; type: cell-based; design: TC50: unit not given here
Method: At assay termination the assay plates were stained with the soluble tetrazolium-based dye MTS (CellTiter® Reagent, Promega) to determined cell viability and quantify compound toxicity. […] At termination of the assay 20 μL of MTS reagent was added per well. The wells were incubated for 4 h at 37° C., 5% CO2. Adhesive plate scalers were used in place of the lids, the sealed plate was inverted several times to mix the soluble formazan product and the plate was read spectrophotometrically at 490 nm with a 650 nm reference wavelength on a Molecular Devices Vmax plate reader.
U1 and ACH-2 cells were obtained from the AIDS Research and Reference Reagent Program and maintained under standard culture conditions in RPMI 1640 supplemented with 10% fetal bovine serum (heat inactivated), supplemented with 2 mM […], 100U/ml penicillin and 100 μg/ml, streptomycin. U1 cells were derived from the histocytic leukemia cell line U937, and contain a single integrated copy (HIV IIIB) […] a cytokine and/or phorbol inducible provirus. ACH-2 cells are derived from the A3.01 T lymphoblastic cell line, and contain 2 copies of the HIV IIIB provirus, however only one is cytokine and/or phorbol inducible. Cultures were maintained in such a way as to ensure exponential growth of the populations. At the time of the assay, cells were collected by centrifugation and counted by hemacytometer. If cell viability by Trypan Blue dye exclusion was less than 70% the assay was terminated. The cells were adjusted to 5×10^4 cells/mL and 100 μL, placed in 96 well plates with 100 μL media containing a final concentration of […] TNFα and the test compound. Cultures were incubated for 3 days and supernatants harvested. Compound toxicity was determined by MTS dye reduction. Virus expression was measured by supernatant reverse transcriptasc activity.

[2] = test system: HIV RoJo (a clinical isolate); test: Chronically infected PBMCs, supernatant reverse transcriptase activity; type: cell-based
Method: Reverse transcriptase activity was measured in cell-free supernatants. Tritiated thymidine triphosphate (NEN) (TTP) was resuspended in distilled H2O at 5 Ci/mL. Poly rA and oligo dT were prepared as a stock solution which was kept at −20° C. The RT reaction buffer was prepared fresh on a daily basis and consists of 125 μL 1.0 M EGTA, 125 μL dH2O, 110 μL 10% SDS, 50 μL 1.0 M Tris (pH 7.4), 50 μL, 1.0 M DTT, and 40 μL 1.0 M MgCl2. These three solutions were mixed together in a ratio of 2 parts TTP, 1 part poly rA:oligo dT, and 1 part reaction buffer. Ten microliters of this reaction mixture was placed in a round bottom microtiter plate and 15 μL of virus containing supernatant was added and mixed. The plate was incubated at 37° C. in a water bath with a solid support to prevent submersion of the plate and incubated for 60 minutes. Following reaction, the reaction volume was spotted onto pieces of DE81 paper, washed 5 times for 5 minutes each in a 5% sodium phosphate buffer, 2 times for 1 minute each in distilled water, 2 times for 1 minute each in 70% ethanol, and then dried. Opti-Fluor O was added to each sample and incorporated radioactivity was quantitated utilizing a Wallac 1450 Microbetaplus liquid scintillation counter.
In these studies PBMCs are infected with HIV RoJo (a clinical isolate) and a dynamic population of infected PBMCs established over a period of 2 to 3 weeks. This population of infected PBMCs was established and maintained by the addition of fresh PBMCs in a 1:1 ratio every 7 days, thus overcoming the lost of PBMCs to normal cell death processes. Thus a population of cells was established that consisted of uninfected cells, short lived infected cells and long lived infected cells. In experiments where AZT was added to prevent re-infection of the population, we typically saw a 50% reduction in infection following a 7 day treatment. This means that 50% of the virus production from the infected […] population was due re-infection. […] Thus there was a population of infected PBMCs present ([…] of the total) which survived for extended periods of time and thus met the definition of being chronically infected.

Potassium Iodiscorbate [Compound K]
% CC ([1]; 0.00063 μM, exp 2): 118.9%
TOXICITY VALUES (MTS) MEAN ([1]; 0.00063 μM, exp 2): 1.546 O. D.
% CC ([1]; 0.002 μM, exp 2): 119.4%
TOXICITY VALUES (MTS) MEAN ([1]; 0.002 μM, exp 2): 1.553 O. D.
% CC ([1]; 0.00625 μM, exp 2): 97.8%
TOXICITY VALUES (MTS) MEAN ([1]; 0.00625 μM, exp 2): 1.271 O. D.
% CC ([1]; 0.0625 μM, exp 2): 94.0%
TOXICITY VALUES (MTS) MEAN ([1]; 0.0625 μM, exp 2): 1.222 O. D.
% CC ([1]; 0.2 μM [c7], exp 2): 84.8%
TOXICITY VALUES (MTS) MEAN ([1]; 0.2 μM [c7], exp 2): 1.103 O. D.
% CC ([1]; 0.2 μM [c9], exp 2): 101.5%
TOXICITY VALUES (MTS) MEAN ([1]; 0.2 μM [c9], exp 2): 1.320 O. D.
% CC ([1]; 0.625 μM, exp 2): 93.4%
TOXICITY VALUES (MTS) MEAN ([1]; 0.625 μM, exp 2): 1.214 O. D.
% CC ([1]; 2 μM, exp 2): 89.1%
TOXICITY VALUES (MTS) MEAN ([1]; 2 μM, exp 2): 1.158 O. D.
% CC ([1]; 6.25 μM, exp 2): 83.3%
TOXICITY VALUES (MTS) MEAN ([1]; 6.25 μM, exp 2): 1.083 O. D.
% CC ([1]; 20 μM, exp 2): 70.3%
TOXICITY VALUES (MTS) MEAN ([1]; 20 μM, exp 2): 0.913 O. D.
% CC ([1]; 62.5 μM, exp 2): 80.8%
TOXICITY VALUES (MTS) MEAN ([1]; 62.5 μM, exp 2): 1.050 O. D.
% CC ([1]; 200 μM, exp 2): 26.3%
TOXICITY VALUES (MTS) MEAN ([1]; 200 μM, exp 2): 0.341 O. D.
Percent Control by Supernatant Reverse Transcriptase activity ([2]; Day 7, 1 μg/ml): 94 Percent Control
Percent Control by Supernatant Reverse Transcriptase activity ([2]; Day 7, 5 μg/ml): 87 Percent Control
Percent Control by Supernatant Reverse Transcriptase activity ([2]; Day 7, 10 μg/ml): 92 Percent Control
Percent Control by Supernatant Reverse Transcriptase activity ([2]; Day 7, 25 μg/ml): 84 Percent Control
Percent Control by Supernatant Reverse Transcriptase activity ([2]; Day 7, 50 μg/ml): 70 Percent Control
Percent Control by Supernatant Reverse Transcriptase activity ([2]; Day 7, 100 μg/ml): 34 Percent Control
Percent Control by Supernatant Reverse Transcriptase activity ([2]; Day 14, 1 μg/ml): 94 Percent Control
Percent Control by Supernatant Reverse Transcriptase activity ([2]; Day 14, 5 μg/ml): 57 Percent Control
Percent Control by Supernatant Reverse Transcriptase activity ([2]; Day 14, 10 μg/ml): 66 Percent Control
Percent Control by Supernatant Reverse Transcriptase activity ([2]; Day 14, 25 μg/ml): 65 Percent Control
Percent Control by Supernatant Reverse Transcriptase activity ([2]; Day 14, 50 μg/ml): 56 Percent Control
Percent Control by Supernatant Reverse Transcriptase activity ([2]; Day 14, 100 μg/ml): 75 Percent Control
Percent Control by Supernatant Reverse Transcriptase activity ([2]; da 21, 1 μg/ml): 90 Percent Control
Percent Control by Supernatant Reverse Transcriptase activity ([2]; da 21, 5 μg/ml): 77 Percent Control
Percent Control by Supernatant Reverse Transcriptase activity ([2]; da 21, 10 μg/ml): 74 Percent Control
Percent Control by Supernatant Reverse Transcriptase activity ([2]; da 21, 25 μg/ml): 63 Percent Control
Percent Control by Supernatant Reverse Transcriptase activity ([2]; da 21, 50 μg/ml): 46 Percent Control
Percent Control by Supernatant Reverse Transcriptase activity ([2]; da 21, 100 μg/ml): 50 Percent Control
IC50 in chronically infected PBMCs ([2]; day 7): 68 µg/mL

Zinc Iodiscorbate [Compound Z]
TOXICITY VALUES MEAN ([1]; 0.00063 ug/ml, exp 2): 1.055 O. D.
% CC ([1]; 0.002 ug/ml, exp 2): 90.5%
TOXICITY VALUES MEAN ([1]; 0.002 ug/ml, exp 2): 0.963 O. D.
TOXICITY VALUES MEAN ([1]; 0.00625 ug/ml, exp 2): 1.103 O. D.
TOXICITY VALUES MEAN ([1]; 0.02 ug/ml, exp 2): 1.064 O. D.
TOXICITY VALUES MEAN ([1]; 0.0625 ug/ml, exp 2): 1.072 O. D.
TOXICITY VALUES MEAN ([1]; 0.2 ug/ml, exp 2): 1.031 O. D.
TOXICITY VALUES (MTS) MEAN ([1]; 0.625 ug/ml, exp 1): 1.791 O. D.
% CC ([1]; 0.625 ug/ml, exp 2): 81.6%
TOXICITY VALUES MEAN ([1]; 0.625 ug/ml, exp 2): 0.868 O. D.
TOXICITY VALUES (MTS) MEAN ([1]; 2 ug/ml, exp 1): 1.732 O. D.
% CC ([1]; 2 ug/ml, exp 2): 82.3%
TOXICITY VALUES MEAN ([1]; 2 ug/ml, exp 2): 0.876 O. D.
% CC ([1]; 6.25 ug/ml [c2], exp 2): 35.3%
TOXICITY VALUES MEAN ([1]; 6.25 ug/ml [c2], exp 2): 0.376 O. D.
TOXICITY VALUES MEAN ([1]; 6.25 ug/ml [c4], exp 2): 1.118 O. D.
TOXICITY VALUES (MTS) MEAN ([1]; 6.25 ug/ml, exp 1): 1.649 O. D.
% CC ([1]; 20 ug/ml, exp 1): 91.7%
TOXICITY VALUES (MTS) MEAN ([1]; 20 ug/ml, exp 1): 1.625 O. D.
% CC ([1]; 20 ug/ml, exp 2): 61.7%
TOXICITY VALUES MEAN ([1]; 20 ug/ml, exp 2): 0.658 O. D.
% CC ([1]; 62.5 ug/ml, exp 1): 77.8%
TOXICITY VALUES (MTS) MEAN ([1]; 62.5 ug/ml, exp 1): 1.379 O. D.
% CC ([1]; 200 ug/ml, exp 1): 3.6%
TOXICITY VALUES (MTS) MEAN ([1]; 200 ug/ml, exp 1): 0.063 O. D.
% CC ([1]; 200 ug/ml, exp 2): 7.1%
TOXICITY VALUES MEAN ([1]; 200 ug/ml, exp 2): 0.076 O. D.
TC50 ([1]; U1, experiment 1, Table 1): 114
TC50 ([1]; U1, experiment 2, Table 1): 39
U1 TC50 ([1]; exp 2): 38.8 µg/mL
U1 TC50 ([1]; exp 2, listed as COMPOUND Z): TC50 (uglml) = 38.80 μg/ml
IC50 in chronically infected PBMCs ([2]; 21 days): approximately 30 μg/ml
Percent Control by Supernatant Reverse Transcriptase activity ([2]; Day 7, 1 μg/ml): 256 Percent Control
Percent Control by Supernatant Reverse Transcriptase activity ([2]; Day 7, 5 μg/ml): 303 Percent Control
Percent Control by Supernatant Reverse Transcriptase activity ([2]; Day 7, 10 μg/ml): 230 Percent Control
Percent Control by Supernatant Reverse Transcriptase activity ([2]; Day 7, 25 μg/ml): 217 Percent Control
Percent Control by Supernatant Reverse Transcriptase activity ([2]; Day 7, 50 μg/ml): 229 Percent Control
Percent Control by Supernatant Reverse Transcriptase activity ([2]; Day 7, 100 μg/ml): 167 Percent Control
Percent Control by Supernatant Reverse Transcriptase activity ([2]; Day 14, 1 μg/ml): 63 Percent Control
Percent Control by Supernatant Reverse Transcriptase activity ([2]; Day 14, 5 μg/ml): 87 Percent Control
Percent Control by Supernatant Reverse Transcriptase activity ([2]; Day 14, 10 μg/ml): 69 Percent Control
Percent Control by Supernatant Reverse Transcriptase activity ([2]; Day 14, 25 μg/ml): 74 Percent Control
Percent Control by Supernatant Reverse Transcriptase activity ([2]; Day 14, 50 μg/ml): 67 Percent Control
Percent Control by Supernatant Reverse Transcriptase activity ([2]; Day 14, 100 μg/ml): 49 Percent Control
Percent Control by Supernatant Reverse Transcriptase activity ([2]; da 21, 1 μg/ml): 80 Percent Control
Percent Control by Supernatant Reverse Transcriptase activity ([2]; da 21, 5 μg/ml): 70 Percent Control
Percent Control by Supernatant Reverse Transcriptase activity ([2]; da 21, 10 μg/ml): 56 Percent Control
Percent Control by Supernatant Reverse Transcriptase activity ([2]; da 21, 25 μg/ml): 60 Percent Control
Percent Control by Supernatant Reverse Transcriptase activity ([2]; da 21, 50 μg/ml): 48 Percent Control
Percent Control by Supernatant Reverse Transcriptase activity ([2]; da 21, 100 μg/ml): 22 Percent Control
